Laboratory results taken from patent US20250115943A1, “SYSTEM AND METHOD FOR ANTIMICROBIAL SUSCEPTIBILITY TESTING” (priority 2023, published 2025).
Values after ≈ are worked out from the molar mass of the structure shown. Where two headings read alike, the source gives them in different places.

Experiments:
S. aureus ATCC 29213 [1] = conditions: CLSI M100-Ed34E; cited from earlier work
E. coli ATCC 25922 = assay: CytoSPAR BLAST antibiotic susceptibility test; format: cell-based; conditions: for MIC: Escherichia coli; for S, I, R: susceptible, intermediate, resistant category
Source text: (§1) The disclosed technology, which is referred to as the CytoSPAR BLAST (Bacteria Labeling Antibiotic Susceptibility Test) system, is used to quantitatively assess bacterial minimal inhibitory concentration of antibiotics for in vitro susceptibility testing. Used as an aid in diagnosis for clinicians in determining potential treatment options for patients suspected of having a microbial infection, BLAST is intended to determine susceptibility of microorganisms to the listed antibiotics (or other antimicrobials) according to manufacturer's standards. The system is intended for use with clinical isolates from liquid culture and colonies grown on agar (solid medium) or directly from urine samples. Certain implementations of BLAST determine antibiotic susceptibility for a wide range of bacteria obtained from various types of patient samples, including samples from individuals suffering from urinary tract infections. The disclosed technology includes a high-throughput assay that directly detects bacterial susceptibility to a library of frequently used antibiotics and covers both Gram-negative and Gram-positive bacteria.
(§2) The test incorporates a non-canonical amino acid (ncAA) into newly produced proteins. The incorporated ncAA includes a reactive group which allows a specific modification and detection of the living bacteria. The assay involves bacterial incorporation of the ncAA, a chemical reaction between a reactive group and a fluorophore-tagged ligand, and detection of the newly fluorescent-tagged bacteria using a fluorescent plate reader or functionally similar device. The ncAA is added to bacterial growth media and is incorporated into newly synthesized bacterial proteins. The reactive groups on the ncAA are not naturally found in bacteria and act as a specific reactive group for bacteria undergoing active protein synthesis. […] The entire process is performed in a microtiter filter plate for high-throughput scale-up. Alternatively, a normal 96-well plate can also be used in which case centrifugation is used to wash the plate instead of filtration.
(§3) In an example embodiment, bacterial samples are first diluted and incubated in acclimatization media. After treatment with one or more antimicrobials, the ncAA is added and is taken up by living bacteria during protein biosynthesis in a process called labeling. […] The Click-Chemistry reaction between the alkyne group of the ncAA and the azide group of the fluorophore-tagged ligand requires the presence of copper in the reduced state-copper (I). In other implementations, the functional groups of the click chemistry reaction can be changed so that the ncAA has the azide group and the dye has the alkyne group. […] Other reducing agents may be used in the BLAST assay, for example, aldoses (sugars) including glyceraldehyde, glucose, and ribose to replace sodium ascorbate. Likewise, alternate chelators may be used (e.g., histidine in place of BTTAA). In some implementations, metal-free click chemistry reactions are performed without using copper.
(§4) Using the BLAST system, tests can be performed on isolates or direct urine samples. Isolates may be from urine, blood, or other body fluids. Isolated bacteria may be either Gram-positive or Gram-negative. In an example implementation, living bacterial samples in acclimatization media (Buffer A) are distributed in a microtiter filter plate, wherein certain predetermined wells include antibiotics of interest at different concentrations. These antibiotics are arrayed with increasing concentrations in adjacent wells so that the bacterial response can be measured against each specific concentration. The response is measured quantitatively, and a value that corresponds to the ability of the bacteria to metabolize and grow is measured.

S. aureus ATCC 29213 [2] = assay: CytoSPAR BLAST antibiotic susceptibility test; format: cell-based; conditions: for S, I, R: susceptible, intermediate, resistant category; for MIC: Staphylococcus aureus
Source text: as §1, §2, §3, §4

E. coli LSI 770 [3] = assay: reference broth microdilution (rBMD); format: cell-based; conditions: Escherichia coli, LSI770
Experimental: (§5) Following optimization of the BLAST assay, two other tests were performed in which 12 antibiotics (covering different classes) and 8 bacterial strains (Gram-positive and Gram-negative) were assayed using the same method as described above. Different bacterial strains were tested against different antibiotics and for each pair tested, the BLAST MIC value was compared to the CLSI QC range where available, or to the reference broth microdilution (rBMD) MIC which was determined in parallel with the BLAST assay following the CLSI protocols (see references [9]).
(§6) The inoculated urine cultures were incubated overnight at 35+2° C. Each urine culture was centrifuged, and the sediment used to prepare the BLAST inoculum of 5.0×10^5 CFU/mL to start the assay as described in the protocols section. […] The spiked urine samples were tested in parallel with isolates and the resultant BLAST MIC values were compared. In addition to the BLAST test, all the samples were also tested using the reference broth microdilution (rBMD) method and the MIC values were compared.

S. aureus ATCC 29213 [4] = assay: reference broth microdilution (rBMD); format: cell-based
Experimental: as §5, §6

K. pneumoniae LSI 4552 [5] = assay: reference broth microdilution (rBMD); format: cell-based; conditions: Klebsiella pneumoniae, LSI4552
Experimental: as §5

P. mirabilis LSI 4933 [6] = assay: reference broth microdilution (rBMD); format: cell-based; conditions: Proteus mirabilis, LSI4933
Experimental: as §5

K. pneumoniae LSI CT1045 [7] = assay: reference broth microdilution (rBMD); format: cell-based; conditions: Klebsiella pneumoniae, LSICT1045
Experimental: as §5

P. mirabilis LSI 4698 [8] = assay: reference broth microdilution (rBMD); format: cell-based; conditions: Proteus mirabilis, LSI4698
E. coli LSI 770 [9] = assay: CytoSPAR BLAST antibiotic susceptibility test; format: cell-based; conditions: for MIC: Escherichia coli
Source text: as §1, §2, §3, §4

K. pneumoniae LSI 4552 [10] = assay: CytoSPAR BLAST antibiotic susceptibility test; format: cell-based
Source text: as §1, §2, §3, §4

P. mirabilis LSI 4698 [11] = assay: CytoSPAR BLAST antibiotic susceptibility test; format: cell-based
Source text: as §1, §2, §3, §4

P. mirabilis LSI 4933 [12] = assay: CytoSPAR BLAST antibiotic susceptibility test; format: cell-based
Source text: as §1, §2, §3, §4

K. pneumoniae LSI CT1045 [13] = assay: CytoSPAR BLAST antibiotic susceptibility test; format: cell-based
Source text: as §1, §2, §3, §4

[14] = ATCC25922, Table 6, optimized BLAST, cutoff 0.8, read-out: MIC BLAST
[15] = susceptible, intermediate, resistant category
[16] = ATCC29213, Table 6, S. aureus ATCC 29213, optimized BLAST, cutoff 0.8, read-out: MIC BLAST

For `CC1(C)S[C@@H]2[C@H](NC(=O)[C@H](N)c3ccccc3)C(=O)N2[C@H]1C(=O)O` [Ampicillin, ampicillin], the “MIC CLSI QC Range” value (S. aureus ATCC 29213 [1]) is given as 0.5 to 2 µg/mL, the MIC (E. coli ATCC 25922; [14]) is given as 4 µg/mL (≈ 11.4 µM) and the “S, I, R” value (E. coli ATCC 25922) is given as “Susceptible”. For the same molecule, the “S, I, R” value (S. aureus ATCC 29213 [2]; S. aureus ATCC 29213) was “Susceptible”.

In the case of `Cc1nnc(SCC2=C(C(=O)O)N3C(=O)[C@@H](NC(=O)Cn4cnnn4)[C@H]3SC2)s1` [Cefazolin, cefazolin], the MIC (E. coli LSI 770 [3]) is reported as > 256 µg/mL, the MIC (S. aureus ATCC 29213 [4]; Staphylococcus aureus, ATCC29213) is reported as 0.5 µg/mL (≈ 1.1 µM) and the “MIC rBMD” value (S. aureus ATCC 29213 [4]; Table 8, S. aureus ATCC 29213, geometric mean MIC rounded to nearest 2-fold dilution, n = 3) is reported as 0.5 µg/mL (≈ 1.1 µM). The MIC (K. pneumoniae LSI 4552 [5]) was 8 µg/mL (≈ 17.6 µM), the MIC (P. mirabilis LSI 4933 [6]) was 8 µg/mL (≈ 17.6 µM) and the MIC (K. pneumoniae LSI CT1045 [7]) was > 256 µg/mL. For the same molecule, the MIC (P. mirabilis LSI 4698 [8]) was 16 µg/mL (≈ 35.2 µM), the “S, I, R” value (E. coli LSI 770 [9]; E. coli LSI 770, susceptible, intermediate, resistant category) was “Resistant” and the MIC (E. coli LSI 770 [9]; LSI770, read-out: MIC BLAST Isolates) was > 142 µg/mL. For the same molecule, the MIC (E. coli LSI 770 [9]; LSI770, read-out: MIC BLAST Spiked Urine) was > 142 µg/mL, the MIC (E. coli LSI 770 [9]; LSI770, Table 7, E. coli LSI 770, read-out: MIC BLAST) was > 142 µg/mL and the MIC (K. pneumoniae LSI 4552 [10]; Klebsiella pneumoniae, LSI4552, Table 7) was 2 µg/mL (≈ 4.4 µM). For the same molecule, the “S, I, R” value (K. pneumoniae LSI 4552 [10]; [15]) was “Susceptible”, the “BLAST MIC” value (E. coli ATCC 25922; 5×10^6 CFUs/mL, cutoff 0.8, FIGS. 16-18) was 2.0 µg/mL and the MIC (E. coli ATCC 25922; ATCC25922, Table 8, isolates, 5 × 10^5 CFU/mL, read-out: MIC BLAST Isolates) was 4.44 µg/mL (≈ 9.77 µM). The MIC (E. coli ATCC 25922; ATCC25922, Table 8, spiked urine sample, 5 × 10^5 CFU/mL, read-out: MIC BLAST Spiked Urine) was 1.11 µg/mL (≈ 2.44 µM), the “S, I, R” value (E. coli ATCC 25922) was “Susceptible” and the MIC (P. mirabilis LSI 4698 [11]; Proteus mirabilis, LSI4698, Table 7) was 4.4 µg/mL (≈ 9.68 µM). The “S, I, R” value (P. mirabilis LSI 4698 [11]; [15]) was “Susceptible”, the BLAST MIC (S. aureus ATCC 29213 [2]; S. aureus ATCC 29213, FIG. 19) was < 0.125 µg/mL and the “S, I, R” value (S. aureus ATCC 29213 [2]; S. aureus ATCC 29213) was “Susceptible”. For the same molecule, the MIC (S. aureus ATCC 29213 [2]; ATCC29213, S. aureus ATCC 29213, 5×10^6 CFUs/mL, cutoff 0.8, FIGS. 19-21, read-out: BLAST MIC) was < 0.125 µg/mL, the MIC (S. aureus ATCC 29213 [2]; ATCC29213, Table 7, S. aureus ATCC 29213, read-out: MIC BLAST) was 0.14 µg/mL (≈ 0.308 µM) and the MIC (S. aureus ATCC 29213 [2]; ATCC29213, Table 8, S. aureus ATCC 29213, isolates, 5 × 10^5 CFU/mL, read-out: MIC BLAST Isolates) was 0.14 µg/mL (≈ 0.308 µM). The MIC (S. aureus ATCC 29213 [2]; ATCC29213, Table 8, S. aureus ATCC 29213, spiked urine sample, 5 × 10^5 CFU/mL, read-out: MIC BLAST Spiked Urine) was 0.28 µg/mL (≈ 0.616 µM), the MIC (S. aureus ATCC 29213 [2]; ATCC29213, read-out: MIC BLAST, Table 6, S. aureus ATCC 29213, optimized BLAST, cutoff 0.8) was 0.125 µg/mL (≈ 0.275 µM) and the MIC (P. mirabilis LSI 4933 [12]; Proteus mirabilis, LSI4933, Table 7) was 4.4 µg/mL (≈ 9.68 µM). For the same molecule, the “S, I, R” value (P. mirabilis LSI 4933 [12]; [15]) was “Susceptible”, the MIC (K. pneumoniae LSI CT1045 [13]; Klebsiella pneumoniae, LSICT1045, Table 7) was > 142 µg/mL and the “S, I, R” value (K. pneumoniae LSI CT1045 [13]; [15]) was “Resistant”.

With `CO[C@@]1(NC(=O)Cc2cccs2)C(=O)N2C(C(=O)O)=C(COC(N)=O)CS[C@@H]21` [Cefoxitin, cefoxitin] the MIC (E. coli ATCC 25922; [14]) was 4 µg/mL (≈ 9.36 µM), the “S, I, R” value (E. coli ATCC 25922) was “Susceptible” and the “S, I, R” value (S. aureus ATCC 29213 [2]; S. aureus ATCC 29213) was “Susceptible”. The MIC (S. aureus ATCC 29213 [2]; [16]) was 1 µg/mL (≈ 2.34 µM).

In the case of `CO/N=C(\C(=O)N[C@@H]1C(=O)N2C(C(=O)O)=C(CSc3nc(=O)c(=O)[nH]n3C)CS[C@H]12)c1csc(N)n1` [Ceftriaxone, ceftriaxone], the “S, I, R” value (E. coli ATCC 25922) is reported as “Susceptible”, the “S, I, R” value (S. aureus ATCC 29213 [2]; S. aureus ATCC 29213) is reported as “Susceptible” and the MIC (S. aureus ATCC 29213 [2]; [16]) is reported as 1 µg/mL (≈ 1.8 µM).
